Source: ChEMBL document CHEMBL4261496, “Targeting quinolone- and aminocoumarin-resistant bacteria with new gyramide analogs that inhibit DNA gyrase” (Medchemcomm, 2017)
Values after ≈ are worked out from the molar mass of the structure shown. Active and inactive are the calls of the source. The calls are words filed in the database; no cut-off is given here.

Assays:
Escherichia coli [1] = assay: Antibacterial activity against ciprofloxacin-resistant Escherichia coli JW5503 harboring GyrA Ser83Leu mutant after 16 to 18 hrs by broth microdilution method; assay type: functional
[2] = target: DNA gyrase (Escherichia coli) (UniProt P0AES6+P0AES4); assay: Inhibition of Escherichia coli DNA gyrase ATPase activity up to 100 uM using DNA as substrate after 60 mins; assay type: protein-complex assay
Escherichia coli [3] = assay: Antibacterial activity against Escherichia coli JW5503 transfected with empty vector in absence of IPTG induction after 16 hrs by broth microdilution method; assay type: functional; conditions: JW5503, 16 h
Escherichia coli [4] = assay: Antibacterial activity against Escherichia coli JW5503 overexpressing gyrA in absence of IPTG induction after 16 hrs by broth microdilution method; assay type: functional; conditions: JW5503, 16 h
Escherichia coli [5] = assay: Antibacterial activity against Escherichia coli JW5503 overexpressing gyrB in presence of IPTG induction after 16 hrs by broth microdilution method; assay type: functional; conditions: JW5503, 16 h
Escherichia coli [6] = assay: Antibacterial activity against Escherichia coli JW5503 overexpressing gyrB in absence of IPTG induction after 16 hrs by broth microdilution method; assay type: functional; conditions: JW5503, 16 h
Escherichia coli [7] = assay: Antibacterial activity against Escherichia coli JW5503 overexpressing gyrA/gyrB in absence of IPTG induction after 16 hrs by broth microdilution method; assay type: functional; conditions: JW5503, 16 h
Escherichia coli [8] = assay: Antibacterial activity against Escherichia coli JW5503 simultaneously overexpressing gyrA/gyrB in presence of IPTG induction after 16 hrs by broth microdilution method; assay type: functional, organism-based
Escherichia coli [9] = assay: Antibacterial activity against Escherichia coli transfected with empty vector
Escherichia coli [10] = assay: Antibacterial activity against Escherichia coli BW25113 after 16 to 18 hrs by broth microdilution method; assay type: functional
Escherichia coli [11] = assay: Antibacterial activity against Escherichia coli MC4100 after 16 to 18 hrs by broth microdilution method; assay type: functional
Escherichia coli [12] = assay: Antibacterial activity against Escherichia coli BAS849 after 16 to 18 hrs by broth microdilution method; assay type: functional
Escherichia coli [13] = assay: Antibacterial activity against Escherichia coli UPEC after 16 to 18 hrs by broth microdilution method; assay type: functional
Acinetobacter baumannii = assay: Antibacterial activity against Acinetobacter baumannii clinical isolate after 16 to 18 hrs by broth microdilution method; assay type: functional
Edwardsiella tarda = assay: Antibacterial activity against Edwardsiella tarda clinical isolate after 16 to 18 hrs by broth microdilution method; assay type: functional
Klebsiella aerogenes = assay: Antibacterial activity against Enterobacter aerogenes clinical isolate after 16 to 18 hrs by broth microdilution method; assay type: functional
Klebsiella pneumoniae = assay: Antibacterial activity against Klebsiella pneumoniae after 16 to 18 hrs by broth microdilution method; assay type: functional
Morganella morganii = assay: Antibacterial activity against Morganella morganii clinical isolate after 16 to 18 hrs by broth microdilution method; assay type: functional
Pseudomonas aeruginosa = assay: Antibacterial activity against Pseudomonas aeruginosa after 16 to 18 hrs by broth microdilution method; assay type: functional
Salmonella typhimurium = assay: Antibacterial activity against Salmonella enterica subsp. enterica serovar Typhimurium after 16 to 18 hrs by broth microdilution method; assay type: functional
Shigella flexneri = assay: Antibacterial activity against Shigella flexneri after 16 to 18 hrs by broth microdilution method; assay type: functional
Bacillus subtilis = assay: Antibacterial activity against Bacillus subtilis after 16 to 18 hrs by broth microdilution method; assay type: functional
Bacillus cereus = assay: Antibacterial activity against Bacillus cereus after 16 to 18 hrs by broth microdilution method; assay type: functional
Enterococcus faecalis = assay: Antibacterial activity against Enterococcus faecalis after 16 to 18 hrs by broth microdilution method; assay type: functional
Enterococcus faecium = assay: Antibacterial activity against Enterococcus faecium after 16 to 18 hrs by broth microdilution method; assay type: functional
Staphylococcus aureus = assay: Antibacterial activity against Staphylococcus aureus subsp. aureus clinical isolate after 16 to 18 hrs by broth microdilution method; assay type: functional
[14] = tested on: Staphylococcus saprophyticus; assay: Antibacterial activity against Staphylococcus saprophyticus clinical isolate after 16 to 18 hrs by broth microdilution method; assay type: functional
[15] = tested on: Staphylococcus epidermidis; assay: Antibacterial activity against Staphylococcus epidermidis clinical isolate after 16 to 18 hrs by broth microdilution method; assay type: functional
Streptococcus agalactiae = assay: Antibacterial activity against Streptococcus agalactiae after 16 to 18 hrs by broth microdilution method; assay type: functional
Streptococcus pyogenes = assay: Antibacterial activity against Streptococcus pyogenes after 16 to 18 hrs by broth microdilution method; assay type: functional
Escherichia coli [16] = assay: Antibacterial activity against gyramide-resistant Escherichia coli JW5503 harboring GyrA Pro35Thr mutant after 16 to 18 hrs by broth microdilution method; assay type: functional
Escherichia coli [17] = assay: Antibacterial activity against gyramide-resistant Escherichia coli JW5503 harboring GyrA Ser97Pro mutant after 16 to 18 hrs by broth microdilution method; assay type: functional
Escherichia coli [18] = assay: Antibacterial activity against gyramide-resistant Escherichia coli JW5503 harboring GyrA Phe96Leu mutant after 16 to 18 hrs by broth microdilution method; assay type: functional
Escherichia coli [19] = assay: Antibacterial activity against gyramide-resistant Escherichia coli JW5503 harboring GyrA His45Tyr mutant after 16 to 18 hrs by broth microdilution method; assay type: functional
Escherichia coli [20] = assay: Antibacterial activity against gyramide-resistant Escherichia coli JW5503 harboring GyrB Thr508Met mutant after 16 to 18 hrs by broth microdilution method; assay type: functional
Escherichia coli [21] = assay: Antibacterial activity against ciprofloxacin-resistant Escherichia coli JW5503 harboring GyrA Asp87Gly mutant after 16 to 18 hrs by broth microdilution method; assay type: functional
Escherichia coli [22] = assay: Antibacterial activity against ciprofloxacin-resistant Escherichia coli JW5503 harboring GyrA Asp87Tyr mutant after 16 to 18 hrs by broth microdilution method; assay type: functional
Escherichia coli [23] = assay: Antibacterial activity against ciprofloxacin-resistant Escherichia coli JW5503 harboring GyrB Ser464Phe mutant after 16 to 18 hrs by broth microdilution method; assay type: functional
Escherichia coli [24] = assay: Antibacterial activity against Escherichia coli HB101 after 16 to 18 hrs by broth microdilution method; assay type: functional
Escherichia coli [25] = assay: Antibacterial activity against Escherichia coli HB101 after 16 to 18 hrs in presence of PAbetaN by broth microdilution method; assay type: functional
Escherichia coli [26] = assay: Antibacterial activity against novobiocin-resistant Escherichia coli LE316 harboring GyrB Arg136Val mutant after 16 to 18 hrs in presence of PAbetaN by broth microdilution method; assay type: functional
[27] = Ratio of MIC for Escherichia coli BW25113 to MIC for Escherichia coli JW5503; assay type: functional
Escherichia coli [28] = assay: Ratio of MIC for gyramide-resistant Escherichia coli JW5503 harboring GyrA Pro35Thr mutant to MIC for Escherichia coli JW5503; assay type: functional
Escherichia coli [29] = assay: Ratio of MIC for gyramide-resistant Escherichia coli JW5503 harboring GyrA Ser97Pro mutant to MIC for Escherichia coli JW5503; assay type: functional
Escherichia coli [30] = assay: Ratio of MIC for gyramide-resistant Escherichia coli JW5503 harboring GyrA Phe96Leu mutant to MIC for Escherichia coli JW5503; assay type: functional
Escherichia coli [31] = assay: Ratio of MIC for gyramide-resistant Escherichia coli JW5503 harboring GyrA His45Tyr mutant to MIC for Escherichia coli JW5503; assay type: functional
Escherichia coli [32] = assay: Ratio of MIC for gyramide-resistant Escherichia coli JW5503 harboring GyrB Ser464Phe mutant to MIC for Escherichia coli JW5503; assay type: functional
Escherichia coli [33] = assay: Ratio of MIC for ciprofloxacin-resistant Escherichia coli JW5503 harboring GyrA Asp87Tyr mutant to MIC for Escherichia coli JW5503; assay type: functional
Escherichia coli [34] = assay: Ratio of MIC for ciprofloxacin-resistant Escherichia coli JW5503 harboring GyrA Ser83Leu mutant to MIC for Escherichia coli JW5503; assay type: functional
Escherichia coli [35] = assay: Ratio of MIC for ciprofloxacin-resistant Escherichia coli JW5503 harboring GyrA Asp87Gly mutant to MIC for Escherichia coli JW5503; assay type: functional
Escherichia coli [36] = assay: Ratio of MIC for ciprofloxacin-resistant Escherichia coli JW5503 harboring GyrB Ser464Phe mutant to MIC for Escherichia coli JW5503; assay type: functional
Escherichia coli [37] = assay: Ratio of MIC for novobiocin-resistant Escherichia coli CC5 harboring GyrB Arg136His mutant to MIC for Escherichia coli HB101; assay type: functional
Escherichia coli [38] = assay: Ratio of MIC for novobiocin-resistant Escherichia coli LE316 harboring GyrB Arg136Val mutant to MIC for Escherichia coli HB101; assay type: functional
Escherichia coli [39] = assay: Ratio of MIC for novobiocin-resistant Escherichia coli CC7 harboring GyrB Arg136Ser mutant to MIC for Escherichia coli HB101; assay type: functional
DNA gyrase = DNA gyrase (Escherichia coli, UniProt P0AES4+P0AES6); assay: Inhibition of Escherichia coli DNA gyrase assessed as inhibition of pUC19 supercoiling after 30 mins by agarose gel electrophoresis; assay type: protein-complex assay

O=C(O)c1cn(C2CC2)c2cc(N3CCNCC3)c(F)cc2c1=O [CIPROFLOXACIN]
MIC (Escherichia coli [1]): 0.0064 µg/mL (≈ 0.0193 µM) | inhibition [2]: inactive | MIC (Escherichia coli [3]): 0.0021 µg/mL (≈ 0.00634 µM) | MIC (Escherichia coli [4]): 0.0021 µg/mL (≈ 0.00634 µM) | MIC (Escherichia coli [5]): 0.0021 µg/mL | MIC (Escherichia coli [6]): 0.0021 µg/mL (≈ 0.00634 µM) | MIC (Escherichia coli [7]): 0.0021 µg/mL (≈ 0.00634 µM) | Activity (Escherichia coli [8]): Active | MIC (Escherichia coli [9]): 0.009 µg/mL (≈ 0.0272 µM)

Cc1ccc(C(F)(F)F)cc1S(=O)(=O)N[C@@H]1CCN(Cc2ccc(OC3CC3)cc2)C1
MIC (Escherichia coli [10]): 8 µg/mL (≈ 17.6 µM) | MIC (Escherichia coli [11]): 16 µg/mL (≈ 35.2 µM) | MIC (Escherichia coli [12]): 1 µg/mL (≈ 2.2 µM) | MIC (Escherichia coli [13]): > 16 µg/mL | MIC (Acinetobacter baumannii): > 16 µg/mL | MIC (Edwardsiella tarda): 8 µg/mL (≈ 17.6 µM) | MIC (Klebsiella aerogenes): > 16 µg/mL | MIC (Klebsiella pneumoniae): > 16 µg/mL | MIC (Morganella morganii): > 16 µg/mL | MIC (Pseudomonas aeruginosa): > 16 µg/mL | MIC (Salmonella typhimurium): 4 µg/mL (≈ 8.8 µM) | MIC (Shigella flexneri): 4 µg/mL (≈ 8.8 µM) | MIC (Bacillus subtilis): 8 µg/mL (≈ 17.6 µM) | MIC (Bacillus cereus): 8 µg/mL (≈ 17.6 µM) | MIC (Enterococcus faecalis): 16 µg/mL (≈ 35.2 µM) | MIC (Enterococcus faecium): 8 µg/mL (≈ 17.6 µM) | MIC (Staphylococcus aureus): 8 µg/mL (≈ 17.6 µM) | MIC [14]: 8 µg/mL (≈ 17.6 µM) | MIC [15]: 8 µg/mL (≈ 17.6 µM) | MIC (Streptococcus agalactiae): 8 µg/mL (≈ 17.6 µM) | MIC (Streptococcus pyogenes): 4 µg/mL (≈ 8.8 µM) | MIC (Escherichia coli [16]): 11 µg/mL (≈ 24.2 µM) | MIC (Escherichia coli [17]): 22 µg/mL (≈ 48.4 µM) | MIC (Escherichia coli [18]): 11 µg/mL (≈ 24.2 µM) | MIC (Escherichia coli [19]): 22 µg/mL (≈ 48.4 µM) | MIC (Escherichia coli [20]): 5.5 µg/mL (≈ 12.1 µM) | MIC (Escherichia coli [1]): 0.4 µg/mL (≈ 0.88 µM) | MIC (Escherichia coli [21]): 0.8 µg/mL (≈ 1.76 µM) | MIC (Escherichia coli [22]): 0.2 µg/mL (≈ 0.44 µM) | MIC (Escherichia coli [23]): 1.6 µg/mL (≈ 3.52 µM) | MIC (Escherichia coli [24]): 4 µg/mL (≈ 8.8 µM) | MIC (Escherichia coli [25]): 0.1 µg/mL | MIC (Escherichia coli [26]): 0.2 µg/mL | Ratio [27]: 20 | Ratio (Escherichia coli [28]): 10 - 100 | Ratio (Escherichia coli [29]): 10 - 100 | Ratio (Escherichia coli [30]): 10 - 100 | Ratio (Escherichia coli [31]): 10 - 100 | Ratio (Escherichia coli [32]): 10 - 100 | Ratio (Escherichia coli [33]): 2 - 4 | Ratio (Escherichia coli [34]): 2 - 4 | Ratio (Escherichia coli [35]): 2 - 4 | Ratio (Escherichia coli [36]): 2 - 4 | Ratio (Escherichia coli [37]): 2 - 4 | Ratio (Escherichia coli [38]): 2 - 4 | Ratio (Escherichia coli [39]): 2 - 4 | IC50 (DNA gyrase): 170 nM | inhibition [2]: inactive
